Results on seven molecules are retold here after patent US20240018153A1, “BENZENESULFONAMIDE DERIVATIVES AND USES THEREOF” (2692372 ONTARIO, INC., priority 2020, published 2024).

Each structure is given as a SMILES string. pIC50: −log10 of the molar value. A value given as a limit tells only on which side of the number the result lay.

What is called remaining activity is what remains of the control signal, in per cent. The term pIC50 denotes the negative decadic logarithm of the IC50, by convention in mol/L.

In experiment [1] the target is T1, BTK (Homo sapiens (Human), UniProt Q06187). Put plainly: HTRF KinEASE-TK kinase assay, BTK. The conditions noted are these: 3 h preincubation; for remaining activity at 1 µM: 1 μM compound, read-out: % BTK Remaining activity vs DMSO (1 μM, 3 h); for remaining activity at 10 µM: 10 μM compound, read-out: % BTK Remaining activity vs DMSO (10 μM, 3 h); for pIC50: dose response, read-out: BTK Inhibition IC50. It is filed as biochemical. An outline of the steps: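 BTK activity in HTRF KinEASE-TK format, buffer containing 10 mM MnCl2, 5 mM MgCl2, 1 uM ATPγS and 1 mM TCEP; 45 min reaction with biotinylated substrate and ATP.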

Another experiment has as its target RIPK2 (Homo sapiens (Human), UniProt O43353). Briefly: In vitro RIPK2 inhibition. It is filed as biochemical. The conditions noted are these: for remaining activity at 1 µM: read-out: % RIPK2 Remaining activity vs DMSO (1 μM, 3 h); for remaining activity at 10 µM: read-out: % RIPK2 Remaining activity vs DMSO (10 μM, 3 h).
A further experiment has as its target FGFR4 (Homo sapiens (Human), UniProt P22455). Briefly: HTRF KinEASE-TK kinase assay, FGFR4. It is filed as biochemical. To be noted: for remaining activity at 1 µM: read-out: % FGFR4 Remaining activity vs DMSO (1 μM, 3 h); for remaining activity at 10 µM: read-out: % FGFR4 Remaining activity vs DMSO (10 μM, 3 h). Summed up:
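Promega FGFR4 at 0.333 ng/ul (5.12 nM) preincubated with or without inhibitor for 3 h at room temperature, then reaction started with biotinylated substrate and ATP. Stopped with EDTA detection buffer containing 31.25 nM SA-XL665 and Eu-antibody; after 60 min, HTRF 665/620 nm ratio read as substrate phosphorylation.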

Another experiment deals with EGFR (Homo sapiens (Human), UniProt P00533). Put plainly: HTRF KinEASE-TK kinase assay, EGFR. The conditions noted are these: 3 h preincubation; for remaining activity at 1 µM: 1 μM compound, read-out: % EGFR Remaining activity vs DMSO (1 μM, 3 h); for remaining activity at 10 µM: 10 μM compound, read-out: % EGFR Remaining activity vs DMSO (10 μM, 3 h); for pIC50: dose response, read-out: EGFR Inhibition IC50. It is filed as biochemical. Summed up:
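HTRF KinEASE-TK format: EGFR pre-incubated with compound at 1 and 10 uM final (0.5% DMSO) in kinase buffer with 2 mM MnCl2, 5 mM MgCl2 and 1 mM TCEP.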
(TR-FRET usually uses a lanthanide donor and a delayed reading to cut background.)

For another experiment, the target named is BMX (Homo sapiens (Human), UniProt P51813). Put plainly: HTRF KinEASE-TK kinase assay, BMX. Type of experiment: biochemical. The conditions noted are these: for remaining activity at 1 µM: 1 uM compound; for remaining activity at 1 µM / remaining activity at 10 µM: 3 h preincubation; for remaining activity at 10 µM: 10 uM compound; for pIC50: dose response. An outline of the steps: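 Purchased BMX (0.333 ng/ul, 3.03 nM) was preincubated with or without inhibitor for 3 h at room temperature, then biotinylated substrate and ATP were added. Reactions were stopped with EDTA-containing buffer holding 31.25 nM SA-XL665 and Eu-antibody, and after 60 min phosphorylation was read as the HTRF 665/620 nm emission ratio.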

Another experiment deals with JAK3 (Homo sapiens (Human), UniProt P52333). Briefly: HTRF KinEASE-TK kinase assay, JAK3. Type of experiment: biochemical. To be noted: for remaining activity at 1 µM: read-out: % JAK3 Remaining activity vs DMSO (1 μM, 3 h); for remaining activity at 10 µM: read-out: % JAK3 Remaining activity vs DMSO (10 μM, 3 h). Summed up:
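Promega JAK3 at 0.21 nM was preincubated with inhibitor for 3 h at room temperature before biotinylated substrate and ATP were added. The reaction was stopped with EDTA detection buffer containing 31.25 nM SA-XL665 and Eu-antibody. After 60 min, the HTRF 665/620 nm emission ratio reflected substrate phosphorylation.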

Experiment [2] has as its target T1, BTK. Briefly: Ramos RA1 cell lysis and immunoassay, total BTK degradation. Type of experiment: cell-based. More on the design: key to % BTK degradation (RAMOS, 24 h): Y: BTK bound in cells and BTK degradation occurred; concentration or dose not given beside the values. To be noted: RAMOS cells. As for the experimental part:
Ramos RA 1 cells (ATCC) were cultured in RPMI-1640 media (Wisent) supplemented with 10% heat-inactivated FBS and 1% penicillin/streptomycin. Cells were seeded in 6-well plates at 1.71×10^6 cells/well and incubated at 37° C., 5% CO2 for 16 hours. Cells were treated with compound at the indicated concentrations or DMSO alone and incubated at 37° C., 5% CO2 for 24 hours. Cell suspensions were centrifugated at 1,400-1,600 RPM for 5 minutes at room temperature and supernatants were discarded. Cell pellets were resuspended with 1× RIPA buffer (Millipore) and incubated on ice for 15 minutes. Protein lysates were extracted by centrifugating at 20,000 RPM for 20 minutes at 4° C. Proteins were separated and total BTK protein levels were quantified by Simple Western Immunoassay (ProteinSimple) using the 12-230 kDa Jess Separation Module according to the manufacturer's protocol, using a protein concentration of 0.25 μg/μl and antibodies targeting BTK (clone #D3H5, Cell Signalling) and β-Actin (clone #AC-15, Santa Cruz) diluted to 1:400 and 1:10, respectively, where the latter was used as a loading control. An equal ratio of rabbit and mouse HRP-conjugated secondary antibodies was used for detection. BTK protein levels were quantified relative to S-Actin loading levels and subsequently normalized to the DMSO control. Phosphorylated BTK levels were quantified using the Protein Normalization Assay Module for Jess (ProteinSimple) according to the manufacturer's protocol, using a protein concentration of 1.5 μg/μl and an antibody targeting pBTK (Y223) (Cell Signalling) diluted to 1:50. Phosphorylated BTK levels were quantified relative to the Protein Normalization Reagent and subsequently normalized to the DMSO control.

RIPK2, sequence (O43353 whole entry, species assumed): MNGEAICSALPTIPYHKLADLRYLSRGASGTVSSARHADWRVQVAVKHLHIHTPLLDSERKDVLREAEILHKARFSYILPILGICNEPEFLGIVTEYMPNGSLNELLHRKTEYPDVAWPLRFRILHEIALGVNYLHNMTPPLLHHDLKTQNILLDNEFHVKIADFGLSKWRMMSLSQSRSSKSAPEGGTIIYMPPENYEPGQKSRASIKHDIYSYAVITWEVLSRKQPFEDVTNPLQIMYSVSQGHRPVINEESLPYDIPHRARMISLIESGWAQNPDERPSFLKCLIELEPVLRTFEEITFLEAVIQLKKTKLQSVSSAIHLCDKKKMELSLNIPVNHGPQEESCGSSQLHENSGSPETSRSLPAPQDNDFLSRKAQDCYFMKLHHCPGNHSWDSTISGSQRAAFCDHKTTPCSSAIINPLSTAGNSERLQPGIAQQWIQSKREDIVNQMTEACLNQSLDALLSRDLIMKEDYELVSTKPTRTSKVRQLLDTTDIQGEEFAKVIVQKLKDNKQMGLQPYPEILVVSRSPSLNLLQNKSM
BMX, sequence (P51813 whole entry): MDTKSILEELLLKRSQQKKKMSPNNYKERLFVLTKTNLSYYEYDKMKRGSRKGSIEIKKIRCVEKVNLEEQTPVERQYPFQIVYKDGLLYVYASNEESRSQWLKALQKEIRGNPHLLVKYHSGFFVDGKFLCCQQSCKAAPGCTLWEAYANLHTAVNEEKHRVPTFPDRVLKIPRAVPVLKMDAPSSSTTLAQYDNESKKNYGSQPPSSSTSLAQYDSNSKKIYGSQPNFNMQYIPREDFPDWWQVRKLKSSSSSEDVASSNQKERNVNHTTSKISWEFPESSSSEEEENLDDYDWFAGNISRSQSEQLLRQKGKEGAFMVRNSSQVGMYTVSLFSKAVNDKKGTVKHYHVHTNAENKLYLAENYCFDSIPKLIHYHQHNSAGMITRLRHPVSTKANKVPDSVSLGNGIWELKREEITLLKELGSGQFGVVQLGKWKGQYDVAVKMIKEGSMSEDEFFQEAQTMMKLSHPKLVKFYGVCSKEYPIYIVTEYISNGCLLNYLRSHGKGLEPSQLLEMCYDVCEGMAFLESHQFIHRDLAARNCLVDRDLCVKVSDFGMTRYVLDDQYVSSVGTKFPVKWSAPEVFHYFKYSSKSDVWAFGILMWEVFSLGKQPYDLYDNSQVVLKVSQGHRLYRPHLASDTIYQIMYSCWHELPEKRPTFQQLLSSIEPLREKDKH
EGFR, sequence (P00533 25-1210): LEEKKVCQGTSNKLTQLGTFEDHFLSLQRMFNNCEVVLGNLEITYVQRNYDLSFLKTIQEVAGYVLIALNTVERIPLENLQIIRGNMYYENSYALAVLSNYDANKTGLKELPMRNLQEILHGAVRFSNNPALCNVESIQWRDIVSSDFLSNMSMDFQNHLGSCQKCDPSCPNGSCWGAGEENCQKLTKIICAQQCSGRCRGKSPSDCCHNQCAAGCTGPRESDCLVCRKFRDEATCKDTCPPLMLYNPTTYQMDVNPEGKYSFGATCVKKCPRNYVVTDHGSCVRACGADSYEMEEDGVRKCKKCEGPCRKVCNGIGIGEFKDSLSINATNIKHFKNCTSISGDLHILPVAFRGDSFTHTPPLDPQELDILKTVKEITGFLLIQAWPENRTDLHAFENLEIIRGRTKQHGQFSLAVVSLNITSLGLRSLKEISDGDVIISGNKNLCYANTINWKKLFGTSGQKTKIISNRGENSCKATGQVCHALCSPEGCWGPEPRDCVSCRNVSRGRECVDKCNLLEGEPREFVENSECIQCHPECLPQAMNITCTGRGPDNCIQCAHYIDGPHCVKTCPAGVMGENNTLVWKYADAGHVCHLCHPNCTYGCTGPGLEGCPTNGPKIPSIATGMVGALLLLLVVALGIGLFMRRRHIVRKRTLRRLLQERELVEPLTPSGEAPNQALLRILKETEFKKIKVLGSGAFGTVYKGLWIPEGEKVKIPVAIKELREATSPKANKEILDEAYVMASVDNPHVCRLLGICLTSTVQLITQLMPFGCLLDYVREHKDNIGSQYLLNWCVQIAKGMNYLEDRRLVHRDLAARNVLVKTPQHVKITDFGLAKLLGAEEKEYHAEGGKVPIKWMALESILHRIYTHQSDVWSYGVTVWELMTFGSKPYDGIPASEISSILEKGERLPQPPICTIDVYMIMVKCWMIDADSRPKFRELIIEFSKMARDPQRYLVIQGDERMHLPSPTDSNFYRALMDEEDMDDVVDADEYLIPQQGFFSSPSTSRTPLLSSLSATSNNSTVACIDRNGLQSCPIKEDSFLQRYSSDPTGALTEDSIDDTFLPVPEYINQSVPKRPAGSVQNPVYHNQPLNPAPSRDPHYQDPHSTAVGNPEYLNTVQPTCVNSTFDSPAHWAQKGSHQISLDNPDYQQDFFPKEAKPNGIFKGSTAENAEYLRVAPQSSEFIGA
JAK3, sequence (P52333 781-1124): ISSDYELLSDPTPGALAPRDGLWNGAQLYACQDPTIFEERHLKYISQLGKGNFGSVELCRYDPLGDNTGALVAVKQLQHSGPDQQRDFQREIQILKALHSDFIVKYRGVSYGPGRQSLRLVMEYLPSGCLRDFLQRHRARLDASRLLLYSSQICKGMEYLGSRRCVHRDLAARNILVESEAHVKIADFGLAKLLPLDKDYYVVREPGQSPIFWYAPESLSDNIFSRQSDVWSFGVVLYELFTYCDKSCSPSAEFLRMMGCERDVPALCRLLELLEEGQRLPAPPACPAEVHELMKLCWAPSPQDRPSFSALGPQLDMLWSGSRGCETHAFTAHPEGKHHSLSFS
T1 sequence (Q06187 whole entry): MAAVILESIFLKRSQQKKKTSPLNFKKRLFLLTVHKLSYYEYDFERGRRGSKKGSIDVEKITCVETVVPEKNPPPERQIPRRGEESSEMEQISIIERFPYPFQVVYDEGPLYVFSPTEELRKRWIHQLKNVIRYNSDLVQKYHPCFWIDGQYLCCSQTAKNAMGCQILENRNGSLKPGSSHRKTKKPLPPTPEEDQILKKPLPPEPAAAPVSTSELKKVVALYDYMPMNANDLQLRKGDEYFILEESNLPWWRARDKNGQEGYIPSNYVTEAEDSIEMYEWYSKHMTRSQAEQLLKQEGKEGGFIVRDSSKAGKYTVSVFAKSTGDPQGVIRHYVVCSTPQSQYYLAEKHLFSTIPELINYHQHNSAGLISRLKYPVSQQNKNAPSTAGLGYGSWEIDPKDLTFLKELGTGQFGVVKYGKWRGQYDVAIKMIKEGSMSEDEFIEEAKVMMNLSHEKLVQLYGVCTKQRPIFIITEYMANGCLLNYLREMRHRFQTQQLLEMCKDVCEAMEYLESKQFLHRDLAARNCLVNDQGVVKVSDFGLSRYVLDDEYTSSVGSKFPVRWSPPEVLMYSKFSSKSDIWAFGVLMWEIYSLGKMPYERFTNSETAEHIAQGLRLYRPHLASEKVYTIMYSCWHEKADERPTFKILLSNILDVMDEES
FGFR4, sequence (P22455 22-802): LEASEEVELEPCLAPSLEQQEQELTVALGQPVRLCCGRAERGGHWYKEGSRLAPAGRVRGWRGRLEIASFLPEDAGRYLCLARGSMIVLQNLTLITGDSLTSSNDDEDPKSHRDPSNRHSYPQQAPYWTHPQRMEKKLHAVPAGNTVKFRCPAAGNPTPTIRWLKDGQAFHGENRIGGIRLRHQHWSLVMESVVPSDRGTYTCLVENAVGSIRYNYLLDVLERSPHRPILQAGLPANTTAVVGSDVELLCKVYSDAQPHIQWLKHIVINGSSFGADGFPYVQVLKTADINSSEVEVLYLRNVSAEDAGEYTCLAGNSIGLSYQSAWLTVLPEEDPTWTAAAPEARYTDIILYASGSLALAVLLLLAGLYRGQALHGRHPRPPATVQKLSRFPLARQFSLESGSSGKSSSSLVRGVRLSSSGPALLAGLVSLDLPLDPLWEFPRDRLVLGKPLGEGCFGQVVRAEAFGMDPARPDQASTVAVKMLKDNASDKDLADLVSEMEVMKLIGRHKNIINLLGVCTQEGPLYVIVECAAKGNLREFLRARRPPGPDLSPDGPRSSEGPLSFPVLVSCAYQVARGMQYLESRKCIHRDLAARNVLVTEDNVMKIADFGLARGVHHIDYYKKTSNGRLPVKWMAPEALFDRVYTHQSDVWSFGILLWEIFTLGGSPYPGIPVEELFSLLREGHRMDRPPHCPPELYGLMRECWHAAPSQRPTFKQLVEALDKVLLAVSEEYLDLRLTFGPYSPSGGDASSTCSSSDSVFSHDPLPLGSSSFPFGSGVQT

In the case of `C[S@+]([O-])c1c(F)c(F)c(F)c(F)c1C(=O)Nc1ncnc2[nH]ccc12` (racemic) [Compound I-46, 2,3,4,5-tetrafluoro-6-(methylsulfinyl)-N-(7H-pyrrolo[2,3-d]pyrimidin-4-yl)benzamide], the remaining activity at 1 µM is 50 to 90% on BTK [1]; less than 50% at RIPK2; 50 to 90% on FGFR4; greater than 90% at EGFR; 50 to 90% at BMX; greater than 90% on JAK3. For the same molecule, the remaining activity at 10 µM is less than 50% on BTK [1]; 50 to 90% on RIPK2; greater than 90% at FGFR4; greater than 90% at EGFR; 50 to 90% on BMX; greater than 90% on JAK3. At BTK [2], the “% BTK degradation (RAMOS, 24 h)” value is recorded as “Y”.

Take `C[S@+]([O-])c1c(F)c(F)c(F)c(F)c1C(=O)N1CC(n2nc(-c3ccc(Oc4ccccc4)cc3)c3c(N)ncnc32)C1` (racemic) [Compound I-37, (3-(4-amino-3-(4-phenoxyphenyl)-1H-pyrazolo[3,4-d]pyrimidin-1-yl)azetidin-1-yl)(2,3,4,5-tetrafluoro-6-(methylsulfinyl)phenyl)methanone]: the remaining activity at 1 µM on BTK [1] was less than 50%; at RIPK2, 50 to 90%; on FGFR4, greater than 90%; on EGFR, less than 50%; at BMX it was less than 50%; on JAK3 it was less than 50%. Besides, the remaining activity at 10 µM is less than 50% on BTK [1]; greater than 90% on RIPK2; greater than 90% at FGFR4; less than 50% on EGFR; less than 50% at BMX; less than 50% on JAK3. The pIC50 on BTK [1] was greater than 6.00; at EGFR, greater than 6.00; against BMX it was greater than 6.00; on JAK3 (dose response) it was less than 6.00. Further, the “% BTK degradation (RAMOS, 24 h)” value on BTK [2] is “Y”.

In the case of `CS(=O)(=O)c1c(F)c(F)c(F)c(F)c1C(=O)NCCn1nc(-c2ccc(Oc3ccccc3)cc2)c2c(N)ncnc21` [Compound I-38, N-(2-(4-amino-3-(4-phenoxyphenyl)-1H-pyrazolo[3,4-d]pyrimidin-1-yl)ethyl)-2,3,4,5-tetrafluoro-6-(methylsulfonyl)benzamide], the remaining activity at 1 µM was less than 50% on BTK [1]; greater than 90% at RIPK2; less than 50% on FGFR4; less than 50% at EGFR; less than 50% on BMX; greater than 90% at JAK3. The remaining activity at 10 µM was less than 50% on BTK [1]; greater than 90% on RIPK2; less than 50% at FGFR4; less than 50% at EGFR; less than 50% at BMX; less than 50% on JAK3. The results for the negative-log IC50 (pIC50) at BTK [1], at EGFR and against BMX were greater than 6.00, less than 6.00 and greater than 6.00, respectively. The “% BTK degradation (RAMOS, 24 h)” value on BTK [2] is recorded as “Y”.

Turning to `NS(=O)(=O)c1c(F)c(F)c(F)c(F)c1C(=O)NCCNc1ncnc2[nH]ccc12` [Compound I-48], the remaining activity at 1 µM at BTK [1] is less than 50%; at RIPK2 it was less than 50%; on FGFR4 it was greater than 90%; at EGFR, greater than 90%; on BMX, less than 50%; on JAK3, 50 to 90%. The remaining activity at 10 µM is less than 50% on BTK [1]; less than 50% on RIPK2; 50 to 90% at FGFR4; greater than 90% on EGFR; less than 50% on BMX; less than 50% at JAK3. The molecule further had a pIC50 at BMX greater than 6.00. The “% BTK degradation (RAMOS, 24 h)” value at BTK [2] is “Y”.

Regarding `CS(=O)(=O)c1c(F)c(F)c(F)c(F)c1Nc1cc2c(Nc3ccc(F)c(Cl)c3)ncnc2cc1O[C@H]1CCOC1` [Compound I-2, (S)—N^4-(3-chloro-4-fluorophenyl)-N^6-(2,3,4,5-tetrafluoro-6-(methylsulfonyl)phenyl)-7-((tetrahydrofuran-3-yl)oxy)quinazoline-4,6-diamine], the remaining activity at 1 µM on BTK [1] was greater than 90%; on FGFR4 it was greater than 90%; at EGFR it was less than 50%; on BMX it was 50 to 90%; at JAK3, 50 to 90%. The remaining activity at 10 µM was 50 to 90% on BTK [1]; 50 to 90% at FGFR4; less than 50% on EGFR; greater than 90% on BMX; less than 50% on JAK3. The pIC50 on EGFR is greater than 6.00. For the same molecule, the “% BTK degradation (RAMOS, 24 h)” value at BTK [2] is “Y”.

As to `COCCOc1ccc(Nc2ncc(F)c(Nc3cccc(NC(=O)c4c(F)c(F)c(F)c(F)c4[S@+](C)[O-])c3)n2)cc1` (stereo in doubt) [Compound I-62, 2,3,4,5-tetrafluoro-N-(3-((5-fluoro-2-((4-(2-methoxyethoxy)phenyl)amino)pyrimidin-4-yl)amino)phenyl)-6-(methylsulfinyl)benzamide], the remaining activity at 1 µM at BTK [1] was less than 50%; at FGFR4 it was less than 50%; on EGFR it was greater than 90%; on BMX, less than 50%; at JAK3, greater than 90%. The remaining activity at 10 µM is less than 50% at BTK [1]; less than 50% on FGFR4; 50 to 90% on EGFR; less than 50% on BMX; less than 50% on JAK3. In addition, at BTK [2], the “% BTK degradation (RAMOS, 24 h)” value was “Y”.

`CS(=O)(=O)c1c(F)c(F)c(F)c(F)c1C(=O)Nc1cc2c(Nc3ccc(F)c(Cl)c3)ncnc2cc1O[C@H]1CCOC1` [Compound I-5, (S)—N-(4-((3-chloro-4-fluorophenyl)amino)-7-((tetrahydrofuran-3-yl)oxy)quinazolin-6-yl)-2,3,4,5-tetrafluoro-6-(methylsulfonyl)benzamide]: the remaining activity at 1 µM was less than 50% at BTK [1]; greater than 90% at FGFR4; less than 50% at EGFR; 50 to 90% at BMX; 50 to 90% at JAK3. Besides, the remaining activity at 10 µM at BTK [1] is less than 50%; at FGFR4, greater than 90%; on EGFR it was less than 50%; at BMX, less than 50%; on JAK3, less than 50%. Moreover, the negative-log IC50 (pIC50) on EGFR is greater than 6.00. Also, the “% BTK degradation (RAMOS, 24 h)” value on BTK [2] is reported as “Y”.
